pIC50: −log10 of the molar value.
Legend:
[1] = target: Metabotropic glutamate receptor; experiment: Compound was tested for its ability to displace metabotropic glutamate binding to rat brain membranes using [3H]glutamate radioligand.; type: tissue-based, Membrane
[2] = Compound was evaluated for its ability to reverse ACPD-induced inhibition of forskolin-stimulated cAMP formation in the human mGluR2 expressing non-neuronal cells.; type: functional

Row | IC50 [1] [µM] | pIC50 [2] | SMILES
1 | 4.2 |  | N[C@@H](CC(CCCC(c1ccccc1)c1ccccc1)C(=O)O)C(=O)O (stereo not given in full)
2 | 55.3 | 3.77 | N[C@@H](C[C@@H](CCCC(c1ccccc1)c1ccccc1)C(=O)O)C(=O)O
3 | 4.1 | 4.74 | N[C@@H](C[C@H](CCCC(c1ccccc1)c1ccccc1)C(=O)O)C(=O)O
